From patent publication US20020111274A1, “1-alkyl-3-[1-(substituted phenyl) benzotriazol-6-yl] uracils” (BASF Aktiengesellschaft, priority 2000, published 2002)

What was measured:
Design in all cases: scale not given here
AMBEL Ragweed, Common [1] = experiment: Preemergence herbicidal evaluation, AMBEL; type: in vivo, Ambrosia artemisifolia, L.; settings: preemergence
In short: (§1)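 First, seed is blended with potting soil and sown over roughly an inch of soil per cup. Next, the surface is sprayed with an aqueous acetone solution delivering about 0.013–0.800 kg/ha. Finally, cups are grown in the greenhouse and rated after 4–5 weeks.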

ABUTH Velvetleaf [2] = experiment: Postemergence herbicidal evaluation, ABUTH; type: in vivo, Abutilon theophrasti, Medic.; settings: postemergence spray, rated about two-three weeks after treatment
In short: (§2)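 Two-week-old seedlings sprayed postemergence with compound in 80/20 acetone/water plus 1.0% methylated seed oil, at about 0.006–0.400 kg/ha, through a nozzle at 40 psi. Plants kept under greenhouse conditions and visually rated about two–three weeks after treatment; ratings from repeat tests averaged.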

ECHOG Barnyardgrass [3] = experiment: Preemergence herbicidal evaluation, ECHOG; type: in vivo, Echinochloa crus-galli, (L.) Beau; settings: preemergence
In short: as §1

[4] = test system: TRZAWR Wheat, Winter, cv Riband; experiment: Postemergence herbicidal evaluation, TRZAWR; type: in vivo, Triticum aestivum; settings: postemergence spray, rated about two-three weeks after treatment
In short: as §2

GALAP Galium [5] = experiment: Postemergence herbicidal evaluation, GALAP; type: in vivo, Galium aparine; settings: postemergence spray, rated about two-three weeks after treatment
In short: as §2

ORYSAT Rice, Tebonnet [6] = experiment: Postemergence herbicidal evaluation, ORYSAT; type: in vivo, Oryza sativa, (L.); settings: postemergence spray, rated about two-three weeks after treatment
In short: as §2

[7] = test system: CHEAL Lambsquarters, Common; experiment: Preemergence herbicidal evaluation, CHEAL; type: in vivo, Chenopodium album, L.; settings: preemergence
In short: as §1

[8] = test system: TRZAWR Wheat, Winter, cv Riband; experiment: Preemergence herbicidal evaluation, TRZAWR; type: in vivo, Triticum aestivum; settings: preemergence
In short: as §1

[9] = test system: IPOHE Morningglory, Ivyleaf; experiment: Preemergence herbicidal evaluation, IPOHE; type: in vivo, Ipomoea hederacea, (L.) Jacq.; settings: preemergence
In short: as §1

ECHOG Barnyardgrass [10] = experiment: Postemergence herbicidal evaluation, ECHOG; type: in vivo, Echinochloa crus-galli, (L.) Beau; settings: postemergence spray, rated about two-three weeks after treatment
In short: as §2

CASOB Sicklepod [11] = experiment: Preemergence herbicidal evaluation, CASOB; type: in vivo, Cassia obtusifolia, L.; settings: preemergence
In short: as §1

SETVI Foxtail, Green [12] = experiment: Preemergence herbicidal evaluation, SETVI; type: in vivo, Setaria viridis, (L.) Beau; settings: preemergence
In short: as §1

ZEAMX Corn, Field [13] = experiment: Preemergence herbicidal evaluation, ZEAMX; type: in vivo, Zea mays, L. (Sammel-Bezeichnung); settings: preemergence
In short: as §1

ORYSAT Rice, Tebonnet [14] = experiment: Preemergence herbicidal evaluation, ORYSAT; type: in vivo, Oryza sativa, (L.); settings: preemergence
In short: as §1

CASOB Sicklepod [15] = experiment: Postemergence herbicidal evaluation, CASOB; type: in vivo, Cassia obtusifolia, L.; settings: postemergence spray, rated about two-three weeks after treatment
In short: as §2

ABUTH Velvetleaf [16] = experiment: Preemergence herbicidal evaluation, ABUTH; type: in vivo, Abutilon theophrasti, Medic.; settings: preemergence
In short: as §1

GLXMAW Soybean, Williams [17] = experiment: Preemergence herbicidal evaluation, GLXMAW; type: in vivo, Glycine max, (L.) Merr. cv Williams; settings: preemergence
In short: as §1

[18] = test system: IPOHE Morningglory, Ivyleaf; experiment: Postemergence herbicidal evaluation, IPOHE; type: in vivo, Ipomoea hederacea, (L.) Jacq.; settings: postemergence spray, rated about two-three weeks after treatment
In short: as §2

GALAP Galium [19] = experiment: Preemergence herbicidal evaluation, GALAP; type: in vivo, Galium aparine; settings: preemergence
In short: as §1

GLXMAW Soybean, Williams [20] = experiment: Postemergence herbicidal evaluation, GLXMAW; type: in vivo, Glycine max, (L.) Merr. cv Williams; settings: postemergence spray, rated about two-three weeks after treatment
In short: as §2

ZEAMX Corn, Field [21] = experiment: Postemergence herbicidal evaluation, ZEAMX; type: in vivo, Zea mays, L. (Sammel-Bezeichnung); settings: postemergence spray, rated about two-three weeks after treatment
In short: as §2

[22] = test system: CHEAL Lambsquarters, Common; experiment: Postemergence herbicidal evaluation, CHEAL; type: in vivo, Chenopodium album, L.; settings: postemergence spray, rated about two-three weeks after treatment
In short: as §2

AMBEL Ragweed, Common [23] = experiment: Postemergence herbicidal evaluation, AMBEL; type: in vivo, Ambrosia artemisifolia, L.; settings: postemergence spray, rated about two-three weeks after treatment
In short: as §2

SETVI Foxtail, Green [24] = experiment: Postemergence herbicidal evaluation, SETVI; type: in vivo, Setaria viridis, (L.) Beau; settings: postemergence spray, rated about two-three weeks after treatment
In short: as §2

Cc1cc(O)ccc1-n1nnc2cc(F)c(-n3c(=O)cc(C(F)(F)F)n(C)c3=O)cc21 [Example 33]
AMBEL herbicidal rating (AMBEL Ragweed, Common [1]; rate 0.016 kg/ha): 0.0 | AMBEL herbicidal rating (AMBEL Ragweed, Common [1]; rate 0.032 kg/ha): 0.0 | AMBEL herbicidal rating (AMBEL Ragweed, Common [1]; rate 0.062 kg/ha): 0.0 | AMBEL herbicidal rating (AMBEL Ragweed, Common [1]; rate 0.125 kg/ha): 0.0 | Postemergence herbicidal rating ABUTH (ABUTH Velvetleaf [2]; 0.008 kg/ha): 0.0 | Postemergence herbicidal rating ABUTH (ABUTH Velvetleaf [2]; 0.016 kg/ha): 3.0 | Postemergence herbicidal rating ABUTH (ABUTH Velvetleaf [2]; 0.032 kg/ha): 3.0 | Postemergence herbicidal rating ABUTH (ABUTH Velvetleaf [2]; 0.062 kg/ha): 5.0 | ECHCG herbicidal rating (ECHOG Barnyardgrass [3]; rate 0.016 kg/ha): 0.0 | ECHCG herbicidal rating (ECHOG Barnyardgrass [3]; rate 0.032 kg/ha): 0.0 | ECHCG herbicidal rating (ECHOG Barnyardgrass [3]; rate 0.062 kg/ha): 0.0 | ECHCG herbicidal rating (ECHOG Barnyardgrass [3]; rate 0.125 kg/ha): 0.0 | Postemergence herbicidal rating TRZAWR ([4]; 0.008 kg/ha): 0.5 | Postemergence herbicidal rating TRZAWR ([4]; 0.016 kg/ha): 1.0 | Postemergence herbicidal rating TRZAWR ([4]; 0.032 kg/ha): 2.0 | Postemergence herbicidal rating TRZAWR ([4]; 0.062 kg/ha): 2.5 | Postemergence herbicidal rating GALAP (GALAP Galium [5]; 0.008 kg/ha): 0.0 | Postemergence herbicidal rating GALAP (GALAP Galium [5]; 0.016 kg/ha): 0.0 | Postemergence herbicidal rating GALAP (GALAP Galium [5]; 0.032 kg/ha): 0.0 | Postemergence herbicidal rating GALAP (GALAP Galium [5]; 0.062 kg/ha): 0.0 | Postemergence herbicidal rating ORYSAT (ORYSAT Rice, Tebonnet [6]; 0.008 kg/ha): 0.0 | Postemergence herbicidal rating ORYSAT (ORYSAT Rice, Tebonnet [6]; 0.016 kg/ha): 0.0 | Postemergence herbicidal rating ORYSAT (ORYSAT Rice, Tebonnet [6]; 0.032 kg/ha): 0.5 | Postemergence herbicidal rating ORYSAT (ORYSAT Rice, Tebonnet [6]; 0.062 kg/ha): 2.0 | CHEAL herbicidal rating ([7]; rate 0.016 kg/ha): 9.0 | CHEAL herbicidal rating ([7]; rate 0.032 kg/ha): 9.0 | CHEAL herbicidal rating ([7]; rate 0.062 kg/ha): 9.0 | CHEAL herbicidal rating ([7]; rate 0.125 kg/ha): 9.0 | TRZAWR herbicidal rating ([8]; rate 0.016 kg/ha): 0.0 | TRZAWR herbicidal rating ([8]; rate 0.032 kg/ha): 0.0 | TRZAWR herbicidal rating ([8]; rate 0.062 kg/ha): 0.0 | TRZAWR herbicidal rating ([8]; rate 0.125 kg/ha): 0.0 | IPOHE herbicidal rating ([9]; rate 0.016 kg/ha): 0.0 | IPOHE herbicidal rating ([9]; rate 0.032 kg/ha): 0.0 | IPOHE herbicidal rating ([9]; rate 0.062 kg/ha): 0.0 | IPOHE herbicidal rating ([9]; rate 0.125 kg/ha): 0.0 | Postemergence herbicidal rating ECHCG (ECHOG Barnyardgrass [10]; 0.008 kg/ha): 0.0 | Postemergence herbicidal rating ECHCG (ECHOG Barnyardgrass [10]; 0.016 kg/ha): 0.0 | Postemergence herbicidal rating ECHCG (ECHOG Barnyardgrass [10]; 0.032 kg/ha): 0.0 | Postemergence herbicidal rating ECHCG (ECHOG Barnyardgrass [10]; 0.062 kg/ha): 0.0 | CASOB herbicidal rating (CASOB Sicklepod [11]; rate 0.016 kg/ha): 0.0 | CASOB herbicidal rating (CASOB Sicklepod [11]; rate 0.032 kg/ha): 0.0 | CASOB herbicidal rating (CASOB Sicklepod [11]; rate 0.062 kg/ha): 0.0 | CASOB herbicidal rating (CASOB Sicklepod [11]; rate 0.125 kg/ha): 0.0 | SETVI herbicidal rating (SETVI Foxtail, Green [12]; rate 0.016 kg/ha): 0.0 | SETVI herbicidal rating (SETVI Foxtail, Green [12]; rate 0.032 kg/ha): 0.0 | SETVI herbicidal rating (SETVI Foxtail, Green [12]; rate 0.062 kg/ha): 0.0 | SETVI herbicidal rating (SETVI Foxtail, Green [12]; rate 0.125 kg/ha): 0.0 | ZEAMX herbicidal rating (ZEAMX Corn, Field [13]; rate 0.016 kg/ha): 0.0 | ZEAMX herbicidal rating (ZEAMX Corn, Field [13]; rate 0.032 kg/ha): 0.0 | ZEAMX herbicidal rating (ZEAMX Corn, Field [13]; rate 0.062 kg/ha): 0.0 | ZEAMX herbicidal rating (ZEAMX Corn, Field [13]; rate 0.125 kg/ha): 0.0 | ORYSAT herbicidal rating (ORYSAT Rice, Tebonnet [14]; rate 0.016 kg/ha): 0.0 | ORYSAT herbicidal rating (ORYSAT Rice, Tebonnet [14]; rate 0.032 kg/ha): 0.0 | ORYSAT herbicidal rating (ORYSAT Rice, Tebonnet [14]; rate 0.062 kg/ha): 0.0 | ORYSAT herbicidal rating (ORYSAT Rice, Tebonnet [14]; rate 0.125 kg/ha): 0.0 | Postemergence herbicidal rating CASOB (CASOB Sicklepod [15]; 0.008 kg/ha): 0.0 | Postemergence herbicidal rating CASOB (CASOB Sicklepod [15]; 0.016 kg/ha): 0.0 | Postemergence herbicidal rating CASOB (CASOB Sicklepod [15]; 0.032 kg/ha): 0.0 | Postemergence herbicidal rating CASOB (CASOB Sicklepod [15]; 0.062 kg/ha): 0.0 | ABUTH herbicidal rating (ABUTH Velvetleaf [16]; rate 0.016 kg/ha): 0.0 | ABUTH herbicidal rating (ABUTH Velvetleaf [16]; rate 0.032 kg/ha): 0.0 | ABUTH herbicidal rating (ABUTH Velvetleaf [16]; rate 0.062 kg/ha): 0.0 | ABUTH herbicidal rating (ABUTH Velvetleaf [16]; rate 0.125 kg/ha): 9.0 | GLXMAW herbicidal rating (GLXMAW Soybean, Williams [17]; rate 0.016 kg/ha): 0.0 | GLXMAW herbicidal rating (GLXMAW Soybean, Williams [17]; rate 0.032 kg/ha): 0.0 | GLXMAW herbicidal rating (GLXMAW Soybean, Williams [17]; rate 0.062 kg/ha): 0.0 | GLXMAW herbicidal rating (GLXMAW Soybean, Williams [17]; rate 0.125 kg/ha): 0.0 | Postemergence herbicidal rating IPOHE ([18]; 0.008 kg/ha): 0.0 | Postemergence herbicidal rating IPOHE ([18]; 0.016 kg/ha): 2.0 | Postemergence herbicidal rating IPOHE ([18]; 0.032 kg/ha): 3.0 | Postemergence herbicidal rating IPOHE ([18]; 0.062 kg/ha): 9.0 | GALAP herbicidal rating (GALAP Galium [19]; rate 0.016 kg/ha): 0.0 | GALAP herbicidal rating (GALAP Galium [19]; rate 0.032 kg/ha): 0.0 | GALAP herbicidal rating (GALAP Galium [19]; rate 0.062 kg/ha): 0.0 | GALAP herbicidal rating (GALAP Galium [19]; rate 0.125 kg/ha): 0.0 | Postemergence herbicidal rating GLXMAW (GLXMAW Soybean, Williams [20]; 0.008 kg/ha): 1.5 | Postemergence herbicidal rating GLXMAW (GLXMAW Soybean, Williams [20]; 0.016 kg/ha): 3.5 | Postemergence herbicidal rating GLXMAW (GLXMAW Soybean, Williams [20]; 0.032 kg/ha): 4.0 | Postemergence herbicidal rating GLXMAW (GLXMAW Soybean, Williams [20]; 0.062 kg/ha): 5.0 | Postemergence herbicidal rating ZEAMX (ZEAMX Corn, Field [21]; 0.008 kg/ha): 3.0 | Postemergence herbicidal rating ZEAMX (ZEAMX Corn, Field [21]; 0.016 kg/ha): 3.0 | Postemergence herbicidal rating ZEAMX (ZEAMX Corn, Field [21]; 0.032 kg/ha): 3.5 | Postemergence herbicidal rating ZEAMX (ZEAMX Corn, Field [21]; 0.062 kg/ha): 4.0 | Postemergence herbicidal rating CHEAL ([22]; 0.008 kg/ha): 0.0 | Postemergence herbicidal rating CHEAL ([22]; 0.016 kg/ha): 0.0 | Postemergence herbicidal rating CHEAL ([22]; 0.032 kg/ha): 0.0 | Postemergence herbicidal rating CHEAL ([22]; 0.062 kg/ha): 2.0 | Postemergence herbicidal rating AMBEL (AMBEL Ragweed, Common [23]; 0.008 kg/ha): 0.0 | Postemergence herbicidal rating AMBEL (AMBEL Ragweed, Common [23]; 0.016 kg/ha): 0.0 | Postemergence herbicidal rating AMBEL (AMBEL Ragweed, Common [23]; 0.032 kg/ha): 0.0 | Postemergence herbicidal rating AMBEL (AMBEL Ragweed, Common [23]; 0.062 kg/ha): 0.0 | Postemergence herbicidal rating SETVI (SETVI Foxtail, Green [24]; 0.008 kg/ha): 0.0 | Postemergence herbicidal rating SETVI (SETVI Foxtail, Green [24]; 0.016 kg/ha): 0.0 | Postemergence herbicidal rating SETVI (SETVI Foxtail, Green [24]; 0.032 kg/ha): 0.0 | Postemergence herbicidal rating SETVI (SETVI Foxtail, Green [24]; 0.062 kg/ha): 0.0
